Key:
Acetylcholinesterase [1] = target: Acetylcholinesterase (Tetronarce californica, UniProt P04058); test: Enzyme Inhibition Assay; conditions: pH 8; 22 °C
Method: (§1) The cholinesterase assays were performed using colorimetric method reported by Ellman. […] Each inhibitor was evaluated at several concentrations in the range from 1 nM to 20 uM.

Acetylcholinesterase [2] = target: Acetylcholinesterase (Electrophorus electricus, UniProt O42275); test: Enzyme Inhibition Assay; conditions: pH 8; 22 °C
Sequence of Acetylcholinesterase (Electrophorus electricus, UniProt O42275) (O42275 whole entry): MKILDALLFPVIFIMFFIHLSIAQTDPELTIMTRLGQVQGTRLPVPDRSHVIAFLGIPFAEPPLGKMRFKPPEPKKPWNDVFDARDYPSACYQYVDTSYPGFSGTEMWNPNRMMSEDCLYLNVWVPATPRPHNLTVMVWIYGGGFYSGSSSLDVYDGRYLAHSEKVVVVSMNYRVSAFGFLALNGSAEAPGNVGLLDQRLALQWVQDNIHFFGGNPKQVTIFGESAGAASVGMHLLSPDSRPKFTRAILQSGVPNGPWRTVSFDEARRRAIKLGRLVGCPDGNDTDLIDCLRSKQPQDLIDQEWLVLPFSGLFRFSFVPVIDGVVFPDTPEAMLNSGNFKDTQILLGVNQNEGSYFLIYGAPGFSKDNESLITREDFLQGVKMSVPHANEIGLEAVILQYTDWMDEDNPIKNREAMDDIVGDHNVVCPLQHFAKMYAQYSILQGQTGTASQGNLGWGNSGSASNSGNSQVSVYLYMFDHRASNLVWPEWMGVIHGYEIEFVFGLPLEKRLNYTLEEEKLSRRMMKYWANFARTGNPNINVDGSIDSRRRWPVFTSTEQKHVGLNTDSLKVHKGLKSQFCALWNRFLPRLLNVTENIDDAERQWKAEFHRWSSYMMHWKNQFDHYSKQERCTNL
Method: as §1

Sequence of Acetylcholinesterase (Tetronarce californica, UniProt P04058) (P04058 whole entry): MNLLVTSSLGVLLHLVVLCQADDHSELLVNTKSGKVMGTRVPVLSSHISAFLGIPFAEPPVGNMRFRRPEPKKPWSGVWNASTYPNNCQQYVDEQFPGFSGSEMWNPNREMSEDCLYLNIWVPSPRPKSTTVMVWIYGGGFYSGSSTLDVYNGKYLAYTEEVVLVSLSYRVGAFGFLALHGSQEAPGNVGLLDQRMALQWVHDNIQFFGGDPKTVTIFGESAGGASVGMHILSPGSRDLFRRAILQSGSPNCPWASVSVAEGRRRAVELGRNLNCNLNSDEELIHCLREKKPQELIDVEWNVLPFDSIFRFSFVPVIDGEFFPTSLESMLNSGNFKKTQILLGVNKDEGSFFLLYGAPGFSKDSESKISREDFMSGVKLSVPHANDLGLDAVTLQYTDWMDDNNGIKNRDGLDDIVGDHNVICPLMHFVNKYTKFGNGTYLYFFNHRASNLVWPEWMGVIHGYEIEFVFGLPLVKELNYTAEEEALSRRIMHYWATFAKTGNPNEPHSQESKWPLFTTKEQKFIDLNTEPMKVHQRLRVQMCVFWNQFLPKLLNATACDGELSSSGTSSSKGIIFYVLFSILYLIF

SMILES | IC50 (Acetylcholinesterase [1]) [nM] | IC50 (Acetylcholinesterase [2]) [nM]
COc1ccc2c3c1O[C@H]1C[C@@H](O)C=C[C@@]31CC[N+](CCCCCCCCN1C(=O)c3ccccc3C1=O)=C2 [(1S,12S,14R)-4-[8-(1,3-dioxo-2,3-dihydro-1H-isoindol-2-yl)octyl]-14-hydroxy-9-methoxy-11-oxa-4-azatetracyclo[8.6.1.0^{1,12}.0^{6,17}]heptadeca-4,6,8,10(17),15-pentaen-4-ium] | 4 | –
C[N+]1=Cc2ccc(OCCCCCCCCN3C(=O)c4ccccc4C3=O)c3c2[C@@]2(C=C[C@H](O)C[C@@H]2O3)CC1 [(1S,12S,14R)-9-{[8-(1,3-dioxo-2,3-dihydro-1H-isoindol-2-yl)octyl]oxy}-14-hydroxy-4-methyl-11-oxa-4-azatetracyclo[8.6.1.0^{1,12}.0^{6,17}]heptadeca-4,6,8,10(17),15-pentaen-4-ium] | 499 | 203
COc1ccc2c3c1O[C@H]1C[C@@H](O)C=C[C@@]31CCN(CCCCCCCCN1C(=O)c3ccccc3C1=O)C2 [galanthamine deriv. 3d] | 38 | 72
COc1ccc2c3c1O[C@H]1C[C@@H](O)C=C[C@@]31CC[N+](C)=C2 [galanthamine deriv. 14] | 702 | 266
